Assay results published in patent US6867210B2, “Aryl substituted pyrimidines” (Euro-Celtique S.A., priority 2000, dated 2005).
Counter-ions that a name gives are not always drawn. Like-named read-outs stand apart in the source and are kept apart here.

Columns and labels:
[1] = target: rBIIa/beta 1 sodium channels expressed in Xenopus oocytes (Rattus norvegicus, UniProt P04775); test: Electrophysiological Assay 2: two-electrode voltage clamp in Xenopus oocytes; format: cell-based; settings: apparent Ki for the inactivated state from single point inhibition data, read-out: RBIIA/β1 Ki
Description: Electrophysiological Assay 2 was used to measure potencies of compounds of the present invention rBIIa/beta 1 sodium channels expressed in Xenopus oocytes.
Preparation of cRNA encoding cloned rat brain type IIa (rBIIa) and beta 1 (β1): cDNA clones encoding the rat brain beta 1 subunit were cloned in house using standard methods, and mRNA were prepared by standard methods. mRNA encoding rBIIa was provided by Dr. A. Golden (UC Irvine). The mRNAs were diluted and stored at −80° C. in 1 μL aliquots until injection.
Preparation of oocytes: Mature female Xenopus laevis were anaesthetized (20-40 min) using 0.15% 3-aminobenzoic acid ethyl ester (MS-222) following established procedures (Woodward, R. M., et al., Mol. Pharmacol. 41:89-103 (1992)).
Two to six ovarian lobes were surgically removed. Oocytes at developmental stages V-VI were dissected from the ovary, oocytes were still surrounded by enveloping ovarian tissues. Oocytes were defolliculated on the day of surgery by treatment with collagenase (0.5 mg/mL Sigma Type I, or Boehringer Mannheim Type A, for 0.5-1 hr). Treated oocytes were vortexed to dislodge epithelia, washed repeatedly and stored in Barth's medium containing 88 mM NaCl, 1 mM KCl, 0.41 mM CaCl2, 0.33 mM Ca(NO3)2, 0.82 mM MgSO4, 2.4 mM NaHCO3, 5 mM HEPES, pH 7.4 adjusted with 0.1 mg/mL gentamycin sulphate.
Micro-injection of oocytes: Defolliculated oocytes were micro-injected using a Nanoject injection system (Drummond Scientific Co., Broomall, Pa.). Injection pipettes were beveled to minimize clogging. Tip diameter of injection pipettes was 15-35 μm. Oocytes were microinjected with approximately 50 nL 1:10 ratio mixtures of cRNAs for rBIIa and beta 1 respectively.
Electrophysiology: Membrane current responses were recorded in frog Ringer solution containing 115 mM NaCl, 2 mM KCl, 1.8 mM CaCl2, 5 mM HEPES, pH 7.4. Electrical recordings were made using a conventional two-electrode voltage clamp (Dagan TEV-200) over periods ranging between 1-7 days following injection. The recording chamber was a simple gravity fed flow-through chamber (volume […] depending on adjustment of aspirator). Oocytes were placed in the recording chamber, impaled with electrodes and continuously perfused (5-15 mL min^−1) with frog Ringer's solution. The tested compounds were applied by bath perfusion.
Voltage protocols for evoking sodium channel currents: The standard holding potential for whole oocyte clamp was −120 mV. Standard current-voltage relationships were elicited by 40 ms depolarizing steps starting from −60 mV to +50 mV in 10 mV increments. Peak currents were measured as the maximum negative current after depolarizing voltage steps. The voltage from maximum current response was noted and used for the next voltage protocol.
The purpose was to find compounds that are state dependent modifiers of neuronal sodium channels. Preferably, the compounds have a low affinity for the rested/closed state of the channel, but a high affinity for the inactivated state. The following voltage protocol was used to measure a compounds affinity for the inactivated state. Oocytes were held at a holding potential of −120 mV. At this membrane voltage, nearly all of the channels would be in the closed state. Then a 4 second depolarization was made to the voltage where the maximum current was elicited. At the end of this depolarization, nearly all the channels would be in the inactivated state. A 10 ms hyperpolarizing step was then made in order to remove some channels from the incativated state. A final depolarizing test pulse was used to assay the sodium current after this prolonged depolarization (see analysis below). Sodium currents were measured at this test pulse before and after the application of the tested compound. Data was acquired using pClamp 8.0 software and analyzed with clampfit software (Axon instruments). […]

[2] = system: maximal electroshock-induced seizures (MES); test: Maximum electroshock seizure test (MES), anticonvulsant evaluation; format: in vivo; settings: Mus musculus, mice
Source text: The compounds of the present invention may be tested for in vivo anticonvulsant activity after i.v., p.o. or i.p. injection using a number of anticonvulsant tests in mice, including the maximum electroshock seizure test (MES). Maximum electroshock seizures were induced in male NSA mice weighing between 15-20 g and male Sprague-Dawley rats weighing between 200-225 g by application of current (50 mA, 60 pulses/sec, 0.8 msec pulse width, 1 sec duration, D.C., mice; 99 mA, 125 pulses/sec, 0.8 msec pulse width, 2 sec duration, D.C., rats) using a Ugo Basile ECT device (Model 7801). Mice were restrained by gripping the loose skin on their dorsal surface and saline-coated corneal electrodes were held lightly against the two corneae. Rats were allowed free movement on the bench top and ear-clip electrodes were used. […] A tonic seizure was defined as a hindlimb extension in excess of 90 degrees from the plane of the body. Results were treated in a quantal manner.
The ability of 4-[4-(4-fluorophenoxy)phenyl]-pyrimidine-2-carboxamide to block maximal electroshock-induced seizures (MES) was determined according to the method above.
4-[4-(4-Fluorophenoxy)phenyl]-pyrimidine-2-carboxamide was administered p.o. to mice 30 minutes before the test procedure.
The following compounds on Table 1 were tested accordingly after a p.o. administration and also after an i.v. injection. The compounds were injected i.v. 15 minutes before the test procedure.

[3] = iv, i.v. injection 15 minutes before the test, read-out: MES i.v. ED50
[4] = po, p.o., 30 minutes before the test, ED50 = dose protecting 50% of animals, read-out: MES p.o. ED50

| Compound | Ki [1] | ED50 [2, 3] | ED50 [2, 4] |
| --- | --- | --- | --- |
| 4-[4-(4-fluorophenoxy)phenyl]pyrimidine-2-carbamate | 8.7 µM | – | – |
| O=C(c1nccc(-c2ccc(Oc3ccc(F)cc3)cc2)n1)C(Br)Br [1-[4-[4-(4-fluorophenoxy)phenyl]pyrimidine-2-yl]-2,2-dibromoethanone] | 10.6 µM | – | – |
| CN(C)C(=O)c1cc(N(C)C)nc(-c2ccc(Oc3ccccc3)cc2)n1 [2-(4-phenoxyphenyl)-6-(dimethylamino)pyrimidine-4-carboxylic acid dimethylamide] | – | 2.1 mg/kg | – |
| Fc1ccc(Oc2ccc(-c3ccnc(-c4ccno4)n3)cc2)cc1 [2-(5-isoxazolyl)-4-[4-(4-fluorophenoxy)phenyl]pyrimidine] | 2.63 µM | – | – |
| Fc1ccc(Oc2ccc(-c3ccnc(-c4nc[nH]n4)n3)cc2)cc1 [2-[3-(1,2,4-triazolyl)]-4-[4-(4-fluorophenoxy)phenyl]pyrimidine] | 5.91 µM | – | – |
| CN(C)C=NC(=O)c1ccnc(-c2ccc(Oc3ccc(Cl)cc3F)cc2)n1 [2-[4-(4-chloro-2-fluorophenoxy)phenyl]pyrimidine-4-carboxylic acid dimethylaminomethyleneamide] | – | 1.5 mg/kg | 4.1 mg/kg |
| COC(=O)c1ccnc(-c2ccc(Oc3ccc(F)cc3)cc2)n1 [2-[4-(4-fluorophenoxy)phenyl]pyrimidine-4-carboxylic acid methyl ester] | 71.5 µM | – | – |
| CN(C)c1nccc(-c2ccc(Oc3ccc(F)cc3)cc2)n1 [2-dimethylamino-4-[4-(4-fluorophenoxy)phenyl]pyrimidine] | 27.6 µM | – | – |
| Cc1nc(-c2ccc(Oc3ccc(F)cc3)cc2)ccc1C(N)=O [2-methyl-6-[4-(4-fluorophenoxy)phenyl]pyridine-3-carboxamide] | 8.45 µM | – | – |
| COC(=O)c1nccc(-c2ccc(Oc3ccc(F)cc3F)cc2)n1 [4-[4-(2,4-difluorophenoxy)phenyl]pyrimidine-2-carboxylic acid methyl ester] | 139 µM | – | – |
| CCOC(=O)c1nccc(-c2ccc(Oc3ccc(F)cc3)cc2)n1 [4-[4-(4-Fluorophenoxy)phenyl]-pyrimidine-2-carboxylic acid ethyl ester] | 9.86 µM | – | – |
| CNC(=O)c1nccc(-c2ccc(Oc3ccc(F)cc3)cc2)n1 [4-[4-(4-Fluorophenoxy)phenyl]-pyrimidine-2-carboxylic acid methylamide] | – | 2.8 mg/kg | 6.1 mg/kg |
| NC(=O)c1nccc(-c2ccc(Oc3ccc([N+](=O)[O-])cc3)cc2)n1 [4-[4-(4-Nitrophenoxy)phenyl]-pyrimidine-2-carboxamide] | 1.13 µM | 3.1 mg/kg | 10 mg/kg |
| O=C(NCCCl)c1nccc(-c2ccc(Oc3ccc(F)cc3)cc2)n1 [4-[4-(4-fluorophenoxy)phenyl]pyrimidine-2-carboxylic acid 2-chloroethylamide] | 2.62 µM | – | – |
| O=CNC(=O)c1nccc(-c2ccc(Oc3ccc(F)cc3)cc2)n1 [4-[4-(4-fluorophenoxy)phenyl]pyrimidine-2-carboxylic acid hydroxymethyleneamide] | 3.53 µM | 1.5 mg/kg | 5 mg/kg |
| CNC=NC(=O)c1nccc(-c2ccc(Oc3ccc(F)cc3)cc2)n1 [4-[4-(4-fluorophenoxy)phenyl]pyrimidine-2-carboxylic acid methylaminomethyleneamide hydrochloride] | 11.4 µM | – | – |
| N#Cc1ccc(C(N)=O)nc1-c1ccc(Oc2ccccc2)cc1 [5-cyano-6-(4-phenoxyphenyl)pyridine-2-carboxamide] | 11.9 µM | – | – |
| NC(=O)c1ccc(O)c(-c2ccc(Oc3ccccc3)cc2)n1 [5-hydroxy-6-(4-phenoxyphenyl)pyridine-2-carboxamide] | 99.3 µM | – | – |
| NC(=O)c1ccc(-c2ccc(Oc3ccc(F)cc3)cc2)nc1C(N)=O [6-[4-(4-fluorophenoxy)phenyl]pyridine-2,3-dicarboxamide] | 4.54 µM | – | – |
| O=C(NCCN1CCCCC1)c1cccc(-c2ccc(Oc3ccc(F)cc3)cc2)n1 [Compound 3, 6-[4-(4-fluorophenoxy)Phenyl]Pyridine Carboxylic Acid N-piperidinylethylamide] | 0.06 µM | – | – |
| CC(C)(C)c1ccc(-c2cccc(C(N)=O)n2)cc1 [Compound 8a, 6-(4-tert-butylphenyl)pyridine-2-carboxamide] | 6.13 µM | – | – |
| CCCCc1ccc(-c2cccc(C(N)=O)n2)cc1 [Compound 8b, 6-(4-n-butylphenyl)pyridine-2-carboxamide] | 10.5 µM | – | – |
| CC(C)c1ccc(-c2cccc(C(N)=O)n2)cc1 [Compound 8c, 6-(4-i-propylphenyl)pyridine-2-carboxamide] | 41.6 µM | – | – |
| CSc1ccc(-c2cccc(C(N)=O)n2)cc1 [Compound 8d, 6-(4-thiomethylphenyl)pyridine-2-carboxamide] | 52.7 µM | – | – |
| CCOc1ccc(-c2cccc(C(N)=O)n2)cc1 [Compound 8e, 6-(4-ethoxyphenyl)pyridine-2-carboxamide] | 58.7 µM | – | – |
| COc1ccc(-c2cccc(C(N)=O)n2)cc1 [Compound 8f, 6-(4-methoxyphenyl)pyridine-2-carboxamide] | 23.9 µM | – | – |
| Cc1cc(N(C)C)cc(-c2ccc(Oc3ccc(F)cc3)cc2)n1 [Compound 14, 2-Methyl-4-dimethylamino-6-[4-(4-fluorophenoxy)phenyl]pyridine] | 0.33 µM | – | – |
| COc1cc(C(N)=O)nc(-c2ccc(Oc3ccc(F)cc3)cc2)c1 [Compound 18, 4-Methoxy-6-[4-(4-fluorophenoxy)phenyl]pyridine-2-carboxamide] | 3.43 µM | – | – |
| COc1cc(C(=O)NCCN(C)C)nc(-c2ccc(Oc3ccc(F)cc3)cc2)c1 [Compound 19, 4-Methoxy-6-[4-(4-fluorophenoxy)phenyl]pyridine-2-carboxylic acid dimethylaminoethylamide] | 0.32 µM | – | – |
